Tested on: IGROV1 complex spheroids (HUVEC, MSC), viability % test/control
Test: Anticancer human tumor IGROV1 cell line growth inhibition [GQUAD];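 further: spheroids exposed to compounds for 7 days before readout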;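 on viability, T/C: 100% = DMSO vehicle control viability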
Conditions: for IC50: curve of first compound; for viability, T/C: stronger effect = lower value; active means viability on the fitted dose curve at most 10% of control; inactive means the rest
In short: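 Multi-cell-type spheroids of tumor cells with HUVEC and mesenchymal stem cells, treated with drug combinations. Concentrations descend in half-log steps from near clinical Cmax, or from 10 microM where Cmax is unknown; viability read-out.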

[1] = second compound 0.0316 µM, first compound 0.0316 µM
[2] = second compound 0.0316 µM, first compound 0.1 µM
[3] = second compound 0.0316 µM, first compound 0.316 µM
[4] = second compound 0.0316 µM, first compound 1 µM
[5] = second compound 0.0316 µM, first compound 3.16 µM
[6] = second compound 0.0316 µM, first compound 10 µM
[7] = second compound 0.1 µM, first compound 0.0316 µM
[8] = second compound 0.1 µM, first compound 0.1 µM
[9] = second compound 0.1 µM, first compound 0.316 µM
[10] = second compound 0.1 µM, first compound 1 µM
[11] = second compound 0.1 µM, first compound 3.16 µM
[12] = second compound 0.1 µM, first compound 10 µM
[13] = second compound 0.316 µM, first compound 0.0316 µM
[14] = second compound 0.316 µM, first compound 0.1 µM
[15] = second compound 0.316 µM, first compound 0.316 µM
[16] = second compound 0.316 µM, first compound 1 µM
[17] = second compound 0.316 µM, first compound 3.16 µM
[18] = second compound 0.316 µM, first compound 10 µM
[19] = second compound 1 µM, first compound 0.0316 µM
[20] = second compound 1 µM, first compound 0.1 µM
[21] = second compound 1 µM, first compound 0.316 µM
[22] = second compound 1 µM, first compound 1 µM
[23] = second compound 1 µM, first compound 3.16 µM
[24] = second compound 1 µM, first compound 10 µM
[25] = second compound 3.16 µM, first compound 0.0316 µM
[26] = second compound 3.16 µM, first compound 0.1 µM
[27] = second compound 3.16 µM, first compound 0.316 µM
[28] = second compound 3.16 µM, first compound 1 µM
[29] = second compound 3.16 µM, first compound 3.16 µM
[30] = second compound 3.16 µM, first compound 10 µM
[31] = second compound 10 µM, first compound 0.0316 µM
[32] = second compound 10 µM, first compound 0.1 µM
[33] = second compound 10 µM, first compound 0.316 µM
[34] = second compound 10 µM, first compound 1 µM
[35] = second compound 10 µM, first compound 3.16 µM
[36] = second compound 10 µM, first compound 10 µM

COc1ncnc(C2CC2)c1-c1ncc2cnn(Cc3ccc(-c4nc(C(F)(F)F)cn4C(C)C)cc3)c2n1 + Cc1cnc(CNC(=O)c2c(=O)c3ccc(N4CCCN(C)CC4)nc3n3c2sc2ccccc23)cn1
inactive: viability, T/C [1] 53.6% | viability, T/C [2] 55.4% | viability, T/C [3] 53% | viability, T/C [4] 57.7% | viability, T/C [5] 42.7% | viability, T/C [6] 46.5% | viability, T/C [7] 37.1% | viability, T/C [8] 39.4% | viability, T/C [9] 33% | viability, T/C [10] 28.5% | viability, T/C [11] 35.5% | viability, T/C [12] 34.1% | viability, T/C [13] 20.6% | viability, T/C [14] 25.6% | viability, T/C [15] 26.9% | viability, T/C [16] 21.4% | viability, T/C [17] 21.7% | viability, T/C [18] 20.8% | viability, T/C [19] 15.2% | viability, T/C [20] 13.8% | viability, T/C [21] 11.1% | viability, T/C [22] 14.3% | viability, T/C [23] 15.8% | viability, T/C [24] 12.4% | viability, T/C [25] 10.6%
2.11 µM: IC50 (second compound 0.0316 µM)
< 0.0316 µM: IC50 (second compound 0.1 µM) | IC50 (second compound 0.316 µM) | IC50 (second compound 1 µM) | IC50 (second compound 3.16 µM) | IC50 (second compound 10 µM)
active: viability, T/C [26] 8.57% | viability, T/C [27] 9.08% | viability, T/C [28] 9.63% | viability, T/C [29] 9.64% | viability, T/C [30] 8.03% | viability, T/C [31] 9.86% | viability, T/C [32] 9.33% | viability, T/C [33] 8.36% | viability, T/C [34] 8.88% | viability, T/C [35] 10.2% | viability, T/C [36] 7.78%

O=C(NO)c1cnc(N2CCN(S(=O)(=O)c3ccc4ccccc4c3)CC2)nc1 + Cc1cnc(CNC(=O)c2c(=O)c3ccc(N4CCCN(C)CC4)nc3n3c2sc2ccccc23)cn1
< 0.0316 µM: IC50 (second compound 0.0316 µM) | IC50 (second compound 0.1 µM) | IC50 (second compound 0.316 µM) | IC50 (second compound 1 µM) | IC50 (second compound 3.16 µM) | IC50 (second compound 10 µM)
inactive: viability, T/C [1] 49.6% | viability, T/C [2] 21.8% | viability, T/C [7] 16.4% | viability, T/C [13] 11%
active: viability, T/C [3] 4.13% | viability, T/C [4] 0.2% | viability, T/C [5] 0.06% | viability, T/C [6] 0.06% | viability, T/C [8] 10.6% | viability, T/C [9] 2.94% | viability, T/C [10] 0.19% | viability, T/C [11] 0.06% | viability, T/C [12] 0.05% | viability, T/C [14] 9.94% | viability, T/C [15] 2.34% | viability, T/C [16] 0.05% | viability, T/C [17] 0.03% | viability, T/C [18] 0.05% | viability, T/C [19] 8.18% | viability, T/C [20] 8.18% | viability, T/C [21] 1.32% | viability, T/C [22] 0.04% | viability, T/C [23] 0.03% | viability, T/C [24] 0.05% | viability, T/C [25] 5.96% | viability, T/C [26] 4.03% | viability, T/C [27] 0.06% | viability, T/C [28] 0.04% | viability, T/C [29] 0.05% | viability, T/C [30] 0.06% | viability, T/C [31] 6.31% | viability, T/C [32] 6.49% | viability, T/C [33] 0.09% | viability, T/C [34] 0.07% | viability, T/C [35] 0.1% | viability, T/C [36] 0.1%

Reference: PubChem BioAssay AID2060486 (Molecular Pharmacology Branch, DTP, NCI, 2025)
